Results taken from patent US7589123B2, “Chemical compounds” (Phytopharm PLC, priority 2006, dated 2009).
Structures can show the parent of a compound that is named as a salt.

What was measured:
5-lipoxygenase = molecular target: T1, 5-lipoxygenase (Homo sapiens, UniProt P09917); experiment: 5-lipoxygenase activity (LTB4) in human peripheral blood mononuclear leukocytes (Assay 6); format: cell-based; settings: human PBMLs, A23187 30 μM, read-out: Inhibition of 5-LO (%)
T1 construct: endogenous in cells; host or cells: human peripheral blood mononuclear leukocytes (PBMLs)
T1 sequence (P09917 1-674): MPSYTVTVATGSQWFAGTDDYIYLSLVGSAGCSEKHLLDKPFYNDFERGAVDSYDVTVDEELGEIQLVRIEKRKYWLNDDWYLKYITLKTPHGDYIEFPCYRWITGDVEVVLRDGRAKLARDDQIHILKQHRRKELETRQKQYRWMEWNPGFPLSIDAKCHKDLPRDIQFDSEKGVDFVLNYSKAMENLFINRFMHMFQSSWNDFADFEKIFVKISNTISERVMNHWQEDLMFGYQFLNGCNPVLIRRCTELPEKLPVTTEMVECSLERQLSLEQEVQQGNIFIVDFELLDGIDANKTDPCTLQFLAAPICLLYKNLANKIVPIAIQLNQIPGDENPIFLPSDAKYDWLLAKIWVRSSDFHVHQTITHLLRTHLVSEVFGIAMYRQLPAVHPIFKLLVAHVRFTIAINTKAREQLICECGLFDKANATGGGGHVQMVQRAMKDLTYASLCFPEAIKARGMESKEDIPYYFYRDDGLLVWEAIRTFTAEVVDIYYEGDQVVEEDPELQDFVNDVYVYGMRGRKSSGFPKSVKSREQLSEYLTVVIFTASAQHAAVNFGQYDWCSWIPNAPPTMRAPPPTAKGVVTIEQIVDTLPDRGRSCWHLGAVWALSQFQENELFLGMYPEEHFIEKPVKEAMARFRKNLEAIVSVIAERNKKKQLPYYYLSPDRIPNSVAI
Protocol: Human peripheral blood mononuclear leukocytes (PBMLs) were isolated using a Ficoll-Paque density gradient. Human peripheral blood mononuclear leukocytes (5×10^6 cells) were incubated with A23187 (30 μM), a divalent cation ionophore used to initiate the biosynthesis of […], and with vehicle (0.1% DMSO) or test compound (3 and 30 μM) in Hank's balanced salt solution (HBBS) buffer, pH 7.4 at 37° C. for 15 min. The PBML solution was neutralized with NaOH (1 N) and centrifuged at 1000 g for 10 min and the supernatant collected. The concentration of leukotriene B4 (LTB4) in the supernatant was measured using an enzyme immunoassay kit (Assay Design Inc.). A reduction in the concentration of LTB4 indicated an inhibition of the enzyme 5-lipoxygenase (Table 11).

[1] = system: α-smooth muscle actin (α-SMA) mRNA; experiment: Anti-remodelling activity in human lung fibroblasts (HFL1): TGFβ-induced α-SMA mRNA (Assay 4); format: cell-based; settings: Homo sapiens, HFL1 cells, TGFβ 10 ng/ml, 24 h, read-out: Inhibition of α-SMA mRNA synthesis (%)
Protocol: A human foetal lung fibroblast cell line (HFL1 cells; ATCC accession number CCl-153) was used in this assay. The cells were cultured in medium containing a low level of foetal bovine serum (FBS; 0.1%) for 24 h. After 24 h of culturing the medium was changed to: (a) Control medium (medium containing 10% FBS, 1% phosphate saline and 0.5 mM L-glutamine), (b) Control medium and transforming growth factor beta (TGFβ; 10 ng/ml), (c) Control medium and TGFβ and test compounds (3 and 30 μM). The medium was collected after 24 h and the total mRNA extracted in Tri-reagent. The level of mRNA coding for α-smooth muscle actin (α-SMA) was assessed by real-time reverse transcription-polymerase chain reaction (rtRT-PCR) using primer couples that allow the amplification of α-SMA mRNA. Liver glyceraldehydes 3-phosphate dehydrogenase (GADPH) was used as a reference marker in this experiment. The inhibition of the TGTβ-induced overexpression of α-SMA mRNA by the test compounds was quantified.

WI-38 cells = experiment: Viability of WI-38 cells, Alamar Blue (Assay 5); format: cell-based, human
Protocol: (§1) Human diploid lung fibroblasts (WI-38 cells) were incubated overnight in the presence of IL-1α (1 nM) and test compound (3 and 30 μM) in modified Eagle medium at pH 7.3 containing foetal bovine serum (10%) at 37° C. The supernatant was assayed by radioimmunoassay for released PGE2 and the inhibition of PGE2 by test compound calculated (Table 10). The viability of the cells was then assessed by washing with Roswell Park Memorial Institute medium and adding Alamar Blue reagent before being incubated at 37° C. for 4 h. Living cells take up Alamar Blue and emit fluorescence when excited. Fluorescence intensity was measured using a SpectroFluor Plus plate reader with excitation at 530 nm and emission at 590 nm (Table 10).

[2] = system: histamine-induced contractions in guinea pig ileum; experiment: Inhibition of histamine-induced contractions in guinea pig ileum (Assay 3); settings: Cavia porcellus, histamine 1.7 μM, read-out: Inhibition of histamine-induced contraction (%)
Protocol: (§2) Duncan Hartley derived male guinea pigs (325±25 g) were suppressed by CO2 overexposure, the abdominal cavity was exposed and ileal segments were removed. Small strips of ileum were suspended in organ baths containing Krebs solution (composition in g/l: NaCl 6.89, KCl 0.35, CaCl2 0.277, KH2PO4 0.163, MgSO4.7H2O 0.296, NaHCO3 2.1 glucose 1.8). The solution was kept at 32° C. and gassed with O2 (95%)-CO2 (5%) to maintain pH at 7.4. Mechanical activity was recorded by means of isotonic transducers. A resting tension of 1 g was applied to muscle strips before being equilibrated for 1 h, prior to test compound addition. Each preparation was washed twice at 15 min intervals during the equilibration.
(§3) Histamine (1.7 μM; approximately EC60-70) or 5-hydroxytryptamine (5-HT, 2.6 μM; approximately EC60-70) was applied for 5 min and the amplitude of the contraction recorded. The histamine or 5-HT was then washed out until the ileal tissue returned to baseline. Five min after returning to baseline test compound (3 and 30 μM) was applied and the amplitude of the contraction (if any) was recorded. In the continuous presence of test compound, histamine or 5-HT was re-applied and the inhibition of the response was recorded.

[3] = system: IL-1α-induced PGE2 release; experiment: IL-1α-induced PGE2 release in human diploid lung fibroblasts (WI-38) (Assay 5); format: cell-based; settings: Homo sapiens, WI-38 cells, IL-1α 1 nM, overnight
Protocol: as §1

[4] = system: 5-HT-induced contractions in guinea pig ileum; experiment: Inhibition of 5-HT-induced contractions in guinea pig ileum (Assay 3); settings: Cavia porcellus, 5-HT 2.6 μM, read-out: Inhibition of 5-HT-induced contraction (%)
Protocol: as §2, §3

TRPV1 receptor = TRPV1 receptor (Rattus norvegicus, UniProt O35433); experiment: TRPV1 modulation in DRG neurones: CGRP release in absence and presence of capsaicin (Assay 2); format: cell-based; design: The culture used for this experiment contained sensory neurones, Schwann cells and fibroblasts; endogenous in cells; host or cells: primary rat DRG sensory neurone culture (with Schwann cells and fibroblasts); settings: 20 min; for inhibition at 3 µM: 3 μM with capsaicin 1 μM; for inhibition at 3 µM / inhibition at 30 µM: −ve: inhibition, +ve: potentiation of capsaicin response, read-out: Effect of test compounds on capsaicin (1 μM)-induced CGRP release (%); for inhibition at 30 µM: 30 μM with capsaicin 1 μM; for Emax at 3 µM: test compound alone 3 μM; for Emax at 3 µM / Emax at 30 µM: rat DRG sensory neurones, read-out: CGRP release (% of capsaicin (1 μM) response); for Emax at 30 µM: test compound alone 30 μM
Chain of TRPV1 receptor (O35433 whole entry): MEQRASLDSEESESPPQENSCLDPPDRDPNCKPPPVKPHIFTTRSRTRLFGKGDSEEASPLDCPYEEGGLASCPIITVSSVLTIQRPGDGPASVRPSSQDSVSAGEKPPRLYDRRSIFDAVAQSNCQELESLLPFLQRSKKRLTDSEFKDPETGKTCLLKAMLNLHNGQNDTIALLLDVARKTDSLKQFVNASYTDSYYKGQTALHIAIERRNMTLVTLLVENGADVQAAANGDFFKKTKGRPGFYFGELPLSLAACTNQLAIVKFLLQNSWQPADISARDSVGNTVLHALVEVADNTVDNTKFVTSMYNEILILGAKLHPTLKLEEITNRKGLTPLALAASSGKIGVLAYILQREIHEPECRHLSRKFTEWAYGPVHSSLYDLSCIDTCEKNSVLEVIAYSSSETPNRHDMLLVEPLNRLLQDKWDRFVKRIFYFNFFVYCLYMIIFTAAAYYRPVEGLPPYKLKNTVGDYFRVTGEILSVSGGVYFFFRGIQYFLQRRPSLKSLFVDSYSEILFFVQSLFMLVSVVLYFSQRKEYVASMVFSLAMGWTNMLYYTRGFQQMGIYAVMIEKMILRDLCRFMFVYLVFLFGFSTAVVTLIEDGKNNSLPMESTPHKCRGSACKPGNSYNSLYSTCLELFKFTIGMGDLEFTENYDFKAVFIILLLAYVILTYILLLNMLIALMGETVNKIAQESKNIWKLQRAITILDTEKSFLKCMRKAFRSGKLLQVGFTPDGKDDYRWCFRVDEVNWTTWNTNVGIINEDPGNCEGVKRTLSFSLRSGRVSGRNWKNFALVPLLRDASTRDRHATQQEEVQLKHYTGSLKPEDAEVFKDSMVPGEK

Work on `COc1cc(CCC(=O)CC(=O)C(c2ccccc2)c2ccccc2)ccc1O` [Compound 30, 6-(4-Hydroxy-3-methoxyphenyl)-1,1-diphenyl-hexane-2,4-dione] yielded an inhibition at 3 µM (5-lipoxygenase) of 50%, an inhibition at 30 µM (5-lipoxygenase) of 99% and an inhibition at 3 µM [1] of 84%. For the same molecule, the inhibition at 30 µM [1] was 100%, the “Decrease in cell viability (%)” value (WI-38 cells; 3 μM) was −10% and the “Decrease in cell viability (%)” value (WI-38 cells; 30 μM) was 29%. It also gave an inhibition at 3 µM [2] of 8%, an inhibition at 30 µM [2] of 89% and an inhibition at 3 µM [3] of 46%. The inhibition at 30 µM [3] was 99%, the inhibition at 3 µM [4] was 6% and the inhibition at 3 µM (TRPV1 receptor) was 49%. The inhibition at 30 µM (TRPV1 receptor) was -150%, the Emax at 3 µM (TRPV1 receptor) was 70% and the Emax at 30 µM (TRPV1 receptor) was 122%.

`COc1cc(CCC(=O)CC(=O)c2ccc(Cl)cc2C)ccc1O` [Compound 76, 1-(4-Chloro-2-methylphenyl)-5-(4-hydroxy-3-methoxyphenyl)pentane-1,3-dione] was tested, and the inhibition at 3 µM (5-lipoxygenase) was 74%, the inhibition at 30 µM (5-lipoxygenase) was 99% and the inhibition at 3 µM [1] was -1%. The inhibition at 30 µM [1] was 94%, the “Decrease in cell viability (%)” value (WI-38 cells; 3 μM) was 4% and the “Decrease in cell viability (%)” value (WI-38 cells; 30 μM) was 26%. It also gave an inhibition at 3 µM [2] of 9%, an inhibition at 30 µM [2] of 81% and an inhibition at 3 µM [3] of 99%. For the same molecule, the inhibition at 30 µM [3] was 101%, the inhibition at 3 µM [4] was 26% and the inhibition at 30 µM [4] was 72%. It also gave an inhibition at 3 µM (TRPV1 receptor) of 9%, an inhibition at 30 µM (TRPV1 receptor) of 4% and an Emax at 3 µM (TRPV1 receptor) of 55%. For the same molecule, the Emax at 30 µM (TRPV1 receptor) was 107%.

`COc1cc(CCC(=O)CC(=O)c2ccc(C#N)cc2)ccc1O` [Compound 82, 1-(4-Cyanophenyl)-5-(4-hydroxy-3-methoxyphenyl)pentane-1,3-dione] gave an inhibition at 3 µM (5-lipoxygenase) of 48%, an inhibition at 30 µM (5-lipoxygenase) of 97% and an inhibition at 3 µM [1] of -3%. For the same molecule, the inhibition at 30 µM [1] was 39%, the “Decrease in cell viability (%)” value (WI-38 cells; 3 μM) was −4% and the “Decrease in cell viability (%)” value (WI-38 cells; 30 μM) was 6%. The inhibition at 3 µM [2] was 12%, the inhibition at 30 µM [2] was 20% and the inhibition at 3 µM [3] was 78%. It also gave an inhibition at 30 µM [3] of 102%, an inhibition at 3 µM [4] of 13% and an inhibition at 30 µM [4] of 83%. The inhibition at 3 µM (TRPV1 receptor) was 4%, the inhibition at 30 µM (TRPV1 receptor) was 27% and the Emax at 3 µM (TRPV1 receptor) was 53%. The Emax at 30 µM (TRPV1 receptor) was 58%.

With `COc1cc(CCC(=O)CC(=O)C(C)(C)c2ccccc2)ccc1O` [Compound 31, 6-(4-Hydroxy-3-methoxyphenyl)-1,1-dimethyl-1-phenyl-hexane-2,4-dione] the inhibition at 3 µM (5-lipoxygenase) was 32%, the inhibition at 30 µM (5-lipoxygenase) was 95% and the inhibition at 3 µM [1] was 34%. The inhibition at 30 µM [1] was 80%, the “Decrease in cell viability (%)” value (WI-38 cells; 3 μM) was 5% and the “Decrease in cell viability (%)” value (WI-38 cells; 30 μM) was −7%. For the same molecule, the inhibition at 3 µM [2] was 12%, the inhibition at 30 µM [2] was 68% and the inhibition at 3 µM [3] was 83%. It also gave an inhibition at 30 µM [3] of 101%, an inhibition at 3 µM [4] of 10% and an inhibition at 30 µM [4] of 96%. For the same molecule, the inhibition at 3 µM (TRPV1 receptor) was 17%, the inhibition at 30 µM (TRPV1 receptor) was -77% and the Emax at 3 µM (TRPV1 receptor) was 56%. For the same molecule, the Emax at 30 µM (TRPV1 receptor) was 109%.

`COc1cc(CCC(=O)CC(=O)Cc2cccc3ccccc23)ccc1O` [Compound 29, 6-(4-Hydroxy-3-methoxyphenyl)-1-naphthalen-1-yl-hexane-2,4-dione] showed an inhibition at 3 µM (5-lipoxygenase) of 47%, an inhibition at 30 µM (5-lipoxygenase) of 98% and an inhibition at 3 µM [1] of 33%. The inhibition at 30 µM [1] was 86%, the “Decrease in cell viability (%)” value (WI-38 cells; 3 μM) was −1% and the “Decrease in cell viability (%)” value (WI-38 cells; 30 μM) was 12%. The inhibition at 3 µM [2] was 17%, the inhibition at 30 µM [2] was 89% and the inhibition at 3 µM [3] was 86%. It also gave an inhibition at 30 µM [3] of 99%, an inhibition at 3 µM [4] of 5% and an inhibition at 3 µM (TRPV1 receptor) of 46%. It also gave an inhibition at 30 µM (TRPV1 receptor) of -41%, an Emax at 3 µM (TRPV1 receptor) of 65% and an Emax at 30 µM (TRPV1 receptor) of 164%.

Molecule `COc1cc(CCC(=O)CC(=O)c2ccccc2)ccc1OCCN` [Compound 87, 5-(4-(2-aminoethoxy)-3-methoxyphenyl)-1-phenylpentane-1,3-dione hydrochloride] has an inhibition at 3 µM (5-lipoxygenase) of -6%, an inhibition at 30 µM (5-lipoxygenase) of 19% and an inhibition at 3 µM [2] of 0%. For the same molecule, the inhibition at 30 µM [2] was 58%, the inhibition at 3 µM [3] was -28% and the inhibition at 30 µM [3] was -62%. The inhibition at 3 µM [4] was 15% and the inhibition at 30 µM [4] was 93%.

With `COc1cc(CCC(=O)C(C)(C)C(=O)C2(C)CC2)ccc1O` [Compound 70, 5-(4-Hydroxy-3-methoxyphenyl)-2,2-dimethyl-1-(1-methylcyclopropyl)pentane-1,3-dione] the inhibition at 3 µM (5-lipoxygenase) was -1%, the inhibition at 30 µM (5-lipoxygenase) was 63% and the “Decrease in cell viability (%)” value (WI-38 cells; 3 μM) was 0%. For the same molecule, the “Decrease in cell viability (%)” value (WI-38 cells; 30 μM) was 5%, the inhibition at 3 µM [2] was 4% and the inhibition at 30 µM [2] was 29%. It also gave an inhibition at 3 µM [3] of 42%, an inhibition at 30 µM [3] of 86% and an inhibition at 3 µM [4] of 2%. For the same molecule, the inhibition at 30 µM [4] was 46%.

With `COc1cc(CCC(=O)CC(=O)c2ccc3ccccc3c2)c(Cl)cc1O` [Compound 86, 5-(2-Chloro-4-hydroxy-5-methoxyphenyl)-1-(naphthalene-3-yl)pentane-1,3-dione] the inhibition at 3 µM (5-lipoxygenase) was 52%, the inhibition at 30 µM (5-lipoxygenase) was 98% and the “Decrease in cell viability (%)” value (WI-38 cells; 3 μM) was 7%. The “Decrease in cell viability (%)” value (WI-38 cells; 30 μM) was 37%, the inhibition at 3 µM [2] was 0% and the inhibition at 30 µM [2] was 9%. The inhibition at 3 µM [3] was 42%, the inhibition at 30 µM [3] was 100% and the inhibition at 3 µM [4] was 4%. The inhibition at 30 µM [4] was 19%.
